# Measured values published in patent US9993562B2, “Metallic gold cluster molecules as therapeutic agents for arthritic animals” (priority 2016, dated 2018).
# No end group written: not given here.
# Experiments:
# [1] = Effect of treatment on body weight of type II collagen immunized mice; assay type: in vivo, DBA/1 male mice; conditions: mean ± sd
# Procedure: DBA/1 male mice weighted 20-22 grams were purchased from Hua-Fu-Kang Biotechnology Limited, Beijing, China. Type II collagen and Complete Freund's Adjuvant were purchased from Chondrex Inc., Redmond, Wash., USA. […] Gold25(peptide)9 cluster molecules were prepared according to Example 1.
# (§1) Type II collagen was dissolved in 0.1 mM acetic acid solution and was emulsified with equal volume of Complete Freund's Adjuvant to make a 1.0 mg/ml Type II collagen emulsion. After one week of resting and environment adjustment, DBA/1 male mice were divided into groups, each group was consisted of 10 mice. Each animal was injected intradermally at the 2-3 cm base of the tail an emulsion of 100 μg Type II collagen. On day 21, a second booster dose of 100 μg Type II collagen emulsion was injected. Negative control group of mice are injected with equal amount of 0.9% Sodium Chloride solution.
# (§2) On day 22, groups of mice were given different drugs once each day for 28 days (4 weeks) until day 49 (end of week 7). The groups of mice were examined for inflammation and status.
# [2] = system: Collagen induced arthritis in mice; test: Pictures of hind limb swelling (FIG. 6), collagen induced arthritis; assay type: in vivo, DBA/1 male mice; conditions: end of 7 weeks of the experiment
# Procedure: as §1, §2
# [3] = patients; cited from earlier work
# [4] = system: Collagen induced arthritis in mice; test: Visual inflammation scoring of paws (0-4 per limb, four limbs summed), collagen induced arthritis; assay type: in vivo, DBA/1 male mice
# Excerpt: Collagen induced arthritis in mice has been the standard animal model for studying rheumatoid arthritis and other polyarthritis. DBA/1 male mice weighted 20-22 grams were purchased from Hua-Fu-Kang Biotechnology Limited, Beijing, China. Type II collagen and Complete Freund's Adjuvant were purchased from Chondrex Inc., Redmond, Wash., USA. Auranofin was purchased from Sigma, USA and Dexamethasone was purchased from Jin-Yao Amino Acid Company, Tianjing, China. Gold25(peptide)9 cluster molecules were prepared according to Example 1.
# as §1, §2
# The inflammation was assessed by means of a visual scoring method where mouse individual paws were graded from 0-4 as follows:
# 0 score: no redness and no swelling;
# 1 score: mild erythema at the toes;
# 2 scores: toe joints and paw swelling;
# 3 scores: swelling below ankle
# 4 scores: all ankle and paw swelling. • All four limbs of each mouse were examined and scored, and scores of all four limbs were added together for each mouse.
# [5] = light and heat; cited from earlier work
# IL-1β = test: Amount of IL-1β at the arthritic joints (FIG. 11); assay type: in vivo, DBA/1 male mice
# Procedure: as §2
# (§3) In reference to FIGS. 10 and 11, the amount of pro-inflammation cytokine factors IL-6 and IL-1β were measured at the arthritic joints of the variously treated mice groups.
# [6] = Amount of gold at the arthritic joints (FIG. 9); assay type: in vivo, DBA/1 male mice; conditions: group 3, oral 1 mg/kg daily
# Procedure: as §2
# In reference to FIG. 9, the amount of gold was measured at the arthritic joints of the variously treated mice groups.
# [7] = system: Collagen induced arthritis in mice; test: 3D CT scan of paw joints, bone density changes (FIG. 7); assay type: in vivo, DBA/1 male mice; conditions: end of week 7
# Procedure: as §1, §2
# IL-6 = test: Amount of IL-6 at the arthritic joints (FIG. 10); assay type: in vivo, DBA/1 male mice
# Procedure: as §2, §3
# [8] = orally administered form, crystalline solid; cited from earlier work
# [9] = system: Collagen induced arthritis in mice; test: Hematoxylin and eosin histology of hind limb joint sections (FIG. 8); assay type: in vivo, DBA/1 male mice; conditions: H&E
# Procedure: as §1, §2
# To evaluate the soft tissue damages around the joint area, the joint tissues of the hind limbs of each mouse groups were then fixed, embedded, sectioned into slides and hematoxylin and eosin stained to examine the histology and histopathology changes at the joints.
# TNF = test: Amount of TNF at the arthritic joints; assay type: in vivo, DBA/1 male mice
# Procedure: as §2
# In reference to […], the amount of pro-inflammation cytokine TNF was measured at the arthritic joints of the variously treated mice groups. […] The observed significant differences in effectiveness between orally administering and intraperitoneally administering methods may result from the fact that the amount of gold can be more and directly up-taken through phagocytosis by the macrophage cells peritoneum. This effect is also largely consistent with the prior observation that gold25(peptide)9 cluster molecules are capable of induce apoptosis in various cells, and its binding ability of cysteine-rich pro-inflammation cytokines helps with its anti-inflammation effect.
compound,measurement,setting,value
"CC[PH](CC)(CC)[Au][S][C@@H]1O[C@H](COC(C)=O)[C@@H](OC(C)=O)[C@H](OC(C)=O)[C@H]1OC(C)=O [Auranofin, 2,3,4,6-tetra-o-acetyl-1-thio-β-D-glucopyranosato-S-(triethyl-phosphine)-gold, reference compound]",Mice Body Weight,"[1]; 0 w (before dosing, which starts day 22), group i.g. 1 mg/kg",21.60 ± 1.17 g
same,Mice Body Weight,"[1]; 1 wk (before dosing), group i.g. 1 mg/kg",23.25 ± 1.11 g
same,Mice Body Weight,"[1]; 2 wk (before dosing), group i.g. 1 mg/kg",23.75 ± 1.11 g
same,Mice Body Weight,"[1]; 3 wk (before dosing), group i.g. 1 mg/kg",24.35 ± 1.53 g
same,Mice Body Weight,"[1]; 4 wk, i.g. 1 mg/kg once daily from day 22",22.10 ± 1.10 g
same,Mice Body Weight,"[1]; 5 wk, i.g. 1 mg/kg once daily from day 22",21.74 ± 1.14 g
same,Mice Body Weight,"[1]; 6 wk, i.g. 1 mg/kg once daily from day 22",23.24 ± 0.08 g
same,Mice Body Weight,"[1]; 7 wk, i.g. 1 mg/kg once daily from day 22",23.33 ± 0.25 g
same,Hind limb swelling in pictures (FIG. 6),[2]; oral 1 mg/kg daily,swelling and no obvious improvement
same,Side effects,[3],Diarrhea is the most commonly reported
same,"Inflammation visual score (sum of four limbs, each 0-4)","[4]; 35 d, i.g. 1 mg/kg once daily from day 22",6.66 ± 2.00
same,"Inflammation visual score (sum of four limbs, each 0-4)","[4]; 38 d, i.g. 1 mg/kg once daily from day 22",5.77 ± 3.42
same,"Inflammation visual score (sum of four limbs, each 0-4)","[4]; 42 d, i.g. 1 mg/kg once daily from day 22",8.11 ± 2.47
same,"Inflammation visual score (sum of four limbs, each 0-4)","[4]; 45 d, i.g. 1 mg/kg once daily from day 22",8.33 ± 3.42
same,"Inflammation visual score (sum of four limbs, each 0-4)","[4]; 49 d, i.g. 1 mg/kg once daily from day 22",9.88 ± 3.06
same,Swelling scores (in words),[4]; oral 1 mg/kg body weight,slightly lower swelling scores
same,Stability of the powder,[5],unstable and must be protected from light and heat
same,Amount of IL-1β at the arthritic joints,"IL-1β; group 3, oral 1 mg/kg daily",remained high
same,Amount of gold at the arthritic joints,[6],Less but comparable amount gold
same,"Bone deformation and osteolysis of paw joints, 3D CT",[7]; oral 1 mg/kg daily,still developed bone deformation and osteolysis
same,Amount of IL-6 at the arthritic joints,"IL-6; group 3, oral 1 mg/kg daily",remained high
same,Solubility in water,[8],insoluble in water
same,"Joint histopathology (bone erosion, soft tissue damage, synovial macrophage infiltration)",[9]; oral 1 mg/kg daily,"significant soft tissue damages at the joint areas, and large number of infiltration of synovial macrophage cells"
"C[C@@H]1C[C@H]2[C@@H]3CCC4=CC(=O)C=C[C@]4(C)[C@@]3(F)[C@@H](O)C[C@]2(C)[C@@]1(O)C(=O)CO [DEX, Dexamethasone, reference compound]",Mice Body Weight,"[1]; 2 wk (before dosing), group i.g. 0.5 mg/kg",23.20 ± 1.06 g
same,Mice Body Weight,"[1]; 3 wk (before dosing), group i.g. 0.5 mg/kg",23.50 ± 1.02 g
same,"Inflammation visual score (sum of four limbs, each 0-4)","[4]; 35 d, i.g. 0.5 mg/kg once daily from day 22",0.22 ± 0.44
same,"Inflammation visual score (sum of four limbs, each 0-4)","[4]; 38 d, i.g. 0.5 mg/kg once daily from day 22",0.33 ± 0.71
same,"Inflammation visual score (sum of four limbs, each 0-4)","[4]; 42 d, i.g. 0.5 mg/kg once daily from day 22",1.22 ± 1.30
same,"Inflammation visual score (sum of four limbs, each 0-4)","[4]; 45 d, i.g. 0.5 mg/kg once daily from day 22",1.33 ± 1.00
same,"Inflammation visual score (sum of four limbs, each 0-4)","[4]; 49 d, i.g. 0.5 mg/kg once daily from day 22",1.22 ± 0.97
Au25 (peptide)9: metallic 25 gold atom cluster binding 9 peptides of SEQ ID NO: 1 Cys-Cys-Tyr-Gly-Gly-Pro-Lys-Lys-Lys-Arg-Lys-Pro-Gly (CCYGGPKKKRKPG; cysteine pairing not given here; also: 9 peptides bound to Au25 gold cluster),Mice Body Weight,"[1]; 0 w (before dosing, which starts day 22), group i.g. 50 mg/kg",21.60 ± 1.31 g
same,Mice Body Weight,"[1]; 0 w (before dosing, which starts day 22), group i.p. 5 mg/kg",22 ± 1.27 g
same,Mice Body Weight,"[1]; 1 wk (before dosing), group i.g. 50 mg/kg",23.05 ± 1.04 g
same,Mice Body Weight,"[1]; 1 wk (before dosing), group i.p. 5 mg/kg",23.25 ± 1.21 g
same,Mice Body Weight,"[1]; 2 wk (before dosing), group i.g. 50 mg/kg",23.40 ± 1.33 g
same,Mice Body Weight,"[1]; 2 wk (before dosing), group i.p. 5 mg/kg",24.13 ± 0.99 g
same,Mice Body Weight,"[1]; 3 wk (before dosing), group i.g. 50 mg/kg",24.10 ± 1.50 g
same,Mice Body Weight,"[1]; 3 wk (before dosing), group i.p. 5 mg/kg",24.00 ± 0.85 g
same,Mice Body Weight,"[1]; 4 wk, i.g. 50 mg/kg once daily from day 22",22.66 ± 1.64 g
same,Mice Body Weight,"[1]; 4 wk, i.p. 5 mg/kg once daily from day 22",23.30 ± 0.84 g
same,Mice Body Weight,"[1]; 5 wk, i.g. 50 mg/kg once daily from day 22",22.35 ± 1.73 g
same,Mice Body Weight,"[1]; 5 wk, i.p. 5 mg/kg once daily from day 22",23.01 ± 0.70 g
same,Mice Body Weight,"[1]; 6 wk, i.g. 50 mg/kg once daily from day 22",23.23 ± 1.71 g
same,Mice Body Weight,"[1]; 6 wk, i.p. 5 mg/kg once daily from day 22",22.63 ± 1.71 g
same,Mice Body Weight,"[1]; 7 wk, i.g. 50 mg/kg once daily from day 22",23.43 ± 1.47 g
same,Mice Body Weight,"[1]; 7 wk, i.p. 5 mg/kg once daily from day 22",22.47 ± 1.43 g
same,Hind limb swelling in pictures (FIG. 6),[2]; i.p. 5 mg/kg daily,obvious reduced swelling and improvement in deformation
same,Hind limb swelling in pictures (FIG. 6),[2]; oral 50 mg/kg daily,still obvious swelling and slightly better condition
same,"Inflammation visual score (sum of four limbs, each 0-4)","[4]; 35 d, i.g. 50 mg/kg once daily from day 22",6.13 ± 3.09
same,"Inflammation visual score (sum of four limbs, each 0-4)","[4]; 35 d, i.p. 5 mg/kg once daily from day 22",8.00 ± 2.78
same,"Inflammation visual score (sum of four limbs, each 0-4)","[4]; 38 d, i.g. 50 mg/kg once daily from day 22",7.00 ± 3.07
same,"Inflammation visual score (sum of four limbs, each 0-4)","[4]; 38 d, i.p. 5 mg/kg once daily from day 22",7.77 ± 4.49
same,"Inflammation visual score (sum of four limbs, each 0-4)","[4]; 42 d, i.g. 50 mg/kg once daily from day 22",8.88 ± 3.04
same,"Inflammation visual score (sum of four limbs, each 0-4)","[4]; 42 d, i.p. 5 mg/kg once daily from day 22",7.00 ± 3.20
same,"Inflammation visual score (sum of four limbs, each 0-4)","[4]; 45 d, i.g. 50 mg/kg once daily from day 22",8.88 ± 3.52
same,"Inflammation visual score (sum of four limbs, each 0-4)","[4]; 45 d, i.p. 5 mg/kg once daily from day 22",6.38 ± 2.33
same,"Inflammation visual score (sum of four limbs, each 0-4)","[4]; 49 d, i.g. 50 mg/kg once daily from day 22",9.13 ± 0.48
same,"Inflammation visual score (sum of four limbs, each 0-4)","[4]; 49 d, i.p. 5 mg/kg once daily from day 22",5.88 ± 3.40
same,Swelling and joint deformity (in words),"[4]; i.p. 5 mg/kg body weight, 3′ week of treatment",significantly improved
same,Swelling scores (in words),"[4]; oral 50 mg/kg body weight, by the end of 4 weeks of treatment","better scores than Auranofin, but still developed comparable inflammation"
same,Amount of IL-1β at the arthritic joints,"IL-1β; group 4, oral 50 mg/kg daily",reduced these two cytokines to the similar level as that of Dex
same,Amount of IL-1β at the arthritic joints,"IL-1β; group 5, i.p. 5 mg/kg daily",reduced these two cytokines to the similar level as that of Dex
same,"Bone density, deformation and osteolysis of paw joints, 3D CT",[7]; i.p. 5 mg/kg daily,"significant improvement on the bone density comparing the non-treated arthritis mice, and no obvious osteolysis and only slight bone deformation"
same,"Bone deformation and osteolysis of paw joints, 3D CT",[7]; oral 50 mg/kg daily,still developed bone deformation and osteolysis
same,Amount of IL-6 at the arthritic joints,"IL-6; group 4, oral 50 mg/kg daily",reduced these two cytokines to the similar level as that of Dex
same,Amount of IL-6 at the arthritic joints,"IL-6; group 5, i.p. 5 mg/kg daily",reduced these two cytokines to the similar level as that of Dex
same,"Joint histopathology (bone erosion, soft tissue damage, synovial macrophage infiltration)",[9]; i.p. 5 mg/kg daily,the bone erosion is significantly less and no apparent number of synovial macrophage cells infiltration
same,"Joint histopathology (bone erosion, soft tissue damage, synovial macrophage infiltration)",[9]; oral 50 mg/kg daily,reduced soft tissue damages and less macrophage infiltration
same,Amount of TNF at the arthritic joints,"TNF; group 4, oral 50 mg/kg daily",also reduced the amount of TNF
same,Amount of TNF at the arthritic joints,"TNF; group 5, i.p. 5 mg/kg daily",dramatically reduced the TNF generation
